Consider 18 molecules from patent US9144239B2, “Macrocyclic picolinamides as fungicides” (DOW AGROSCIENCES LLC, priority 2012, dated 2015).

Type in all cases: in vivo
Test [1] concerns Puccinia triticina; synonym: Puccinia recondita f. sp. tritici. Put plainly: Fungicide mobility (dropline mobility test): wheat brown rust (PUCCRT). Particulars: 1 ug/leaf. In a few lines:
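A 2 μl drop of formulated compound (EC blank, 110 ppm Triton X-100 water) was applied to a line 5 cm from the tip of primary leaves of "Yuma" wheat seedlings, 6 replicates. Inoculation with PUCCRT was done 1 day after or 3 days before application. Once disease was fully expressed on controls, the acropetal disease-free zone was measured as percent of line-to-tip distance.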

The next test deals with Venturia inaequalis. Put plainly: Fungicidal activity: apple scab (VENTIN). Conditions: 24 h, 1 Day Protectant, read-out: Disease Control VENTIN 1 DP. The protocol: Technical grades of materials were dissolved in acetone, which were then mixed with nine volumes of water containing 110 ppm Triton X-100. The fungicide solutions were applied onto wheat seedlings using an automated booth sprayer to run-off. All sprayed plants were allowed to air dry prior to further handling. Wheat plants (variety Yuma) were grown from seed in a greenhouse in 50% mineral soil/50% soil-less Metro mix until the first leaf was fully emerged, with 7-10 seedlings per pot. These plants were inoculated with an aqueous spore suspension of Septoria tritici either prior to or after fungicide treatments. After inoculation the plants were kept in 100% relative humidity (one day in a dark dew chamber followed by two to three days in a lighted dew chamber at 20° C.) to permit spores to germinate and infect the leaf. The plants were then transferred to a greenhouse set at 20° C. for disease to develop. When disease symptoms were fully expressed on the 1st leaves of untreated plants, infection levels were assessed on a scale of 0 to 100 percent disease severity. Percent disease control was calculated using the ratio of disease severity on treated plants relative to untreated plants. Evaluation of Fungicidal Activity: Apple Scab (Venturia inaequalis; Bayer Code […]) Apple seedlings (variety McIntosh) were grown in soil-less Metro mix, with one plant per pot. Seedlings with two expanding young leaves at the top (older leaves at bottom of the plants were trimmed) were used in the test. Plants were inoculated with a spore suspension of Venturia inaequalis 24 hr after fungicide treatment and kept in a 22° C. dew chamber with 100% RH for 48 hr, and then moved to a greenhouse set at 20° C. for disease to develop. Fungicide formulation, application and disease assessment on the sprayed leaves followed the procedures as described in the Example A.

The subject of test [2] is Blumeria graminis f.sp. hordei; synonym: Erysiphe graminis f.sp. hordei. Kind of test: Fungicidal activity: barley powdery mildew (ERYSGH). Particulars: 24 h, 1 Day Protectant, read-out: Disease Control ERYSGH 1DP. The protocol: Technical grades of materials were dissolved in acetone, which were then mixed with nine volumes of water containing 110 ppm Triton X-100. The fungicide solutions were applied onto wheat seedlings using an automated booth sprayer to run-off. All sprayed plants were allowed to air dry prior to further handling. Wheat plants (variety Yuma) were grown from seed in a greenhouse in 50% mineral soil/50% soil-less Metro mix until the first leaf was fully emerged, with 7-10 seedlings per pot. These plants were inoculated with an aqueous spore suspension of Septoria tritici either prior to or after fungicide treatments. After inoculation the plants were kept in 100% relative humidity (one day in a dark dew chamber followed by two to three days in a lighted dew chamber at 20° C.) to permit spores to germinate and infect the leaf. The plants were then transferred to a greenhouse set at 20° C. for disease to develop. When disease symptoms were fully expressed on the 1st leaves of untreated plants, infection levels were assessed on a scale of 0 to 100 percent disease severity. Percent disease control was calculated using the ratio of disease severity on treated plants relative to untreated plants. Evaluation of Fungicidal Activity: Barley Powdery Mildew (Blumeria graminis f.sp. hordei; Synonym: Erysiphe graminis f.sp. hordei; Bayer Code […]) Barley seedlings (variety Harrington) were propagated in soil-less Metro mix, with each pot having 8 to 12 plants, and used in the test when first leaf was fully emerged. Test plants were inoculated by dusting with infected stock plants 24 hr after fungicide treatments. After inoculation the plants were kept in a greenhouse set at 20° C. for disease to develop. Fungicide formulation, application and disease assessment on the sprayed leaves followed the procedures as described in the Example A.

For test [3], the system named is Glomerella lagenarium; anamorph: Colletotrichum lagenarium. Kind of test: Fungicidal activity: cucumber anthracnose (COLLLA). Conditions: Colletotrichum orbiculare, 24 h, 1 Day Protectant, read-out: Disease Control COLLLA 1DP. The method, then:
Technical grades of materials were dissolved in acetone, which were then mixed with nine volumes of water containing 110 ppm Triton X-100. The fungicide solutions were applied onto wheat seedlings using an automated booth sprayer to run-off. All sprayed plants were allowed to air dry prior to further handling. Wheat plants (variety Yuma) were grown from seed in a greenhouse in 50% mineral soil/50% soil-less Metro mix until the first leaf was fully emerged, with 7-10 seedlings per pot. These plants were inoculated with an aqueous spore suspension of Septoria tritici either prior to or after fungicide treatments. After inoculation the plants were kept in 100% relative humidity (one day in a dark dew chamber followed by two to three days in a lighted dew chamber at 20° C.) to permit spores to germinate and infect the leaf. The plants were then transferred to a greenhouse set at 20° C. for disease to develop. When disease symptoms were fully expressed on the 1st leaves of untreated plants, infection levels were assessed on a scale of 0 to 100 percent disease severity. Percent disease control was calculated using the ratio of disease severity on treated plants relative to untreated plants. Evaluation of Fungicidal Activity: Cucumber Anthracnose (Glomerella lagenarium; Anamorph: Colletotrichum lagenarium; Bayer Code COLLLA) Cucumber seedlings (variety Bush Pickle) were propagated in soil-less Metro mix, with each pot having one plant, and used in the test when 12 to 14 days old. Test plants were inoculated with an aqueous spore suspension of Colletotrichum lagenarium 24 hr after fungicide treatments. After inoculation the plants were kept in a dew room at 22° C. with 100% relative humidity for 48 hr to permit spores to germinate and infect the leaf. The plants were then transferred to a growth room set at 22° C. for disease to develop. Fungicide formulation, application and disease assessment on the sprayed leaves followed the procedures as described in the Example A.

Where [4] appears, read: 24 h, 1 Day Protectant Mobility, read-out: Dropline Mobility Test PUCCRT 1DPM.
[5] abbreviates: 72 h, 3 Day Curative Mobility, read-out: Dropline Mobility Test PUCCRT 3DCM.

Like-named read-outs stand apart in the source and are kept apart here.

For the molecule `CCC(C)(C)O[C@H]1COC[C@H](NC(=O)c2nccc(OC)c2OCOC(C)=O)C(=O)O[C@@H](C)[C@@H]1OCC(C)C` [Compound 78], the pest or weed control at 1 µg/leaf in test [1] (setting [4]) and in test [1] (setting [5]) was 0 to 80% in each case. Moreover, the pest or weed control at 100 ppm is 80 to 100% in the test on Venturia inaequalis, 0 to 80% in test [2] and 80 to 100% in test [3].
With `COc1ccnc(C(=O)N[C@H]2COC[C@H](OC(=O)C(C)C)[C@@H](OC(=O)C(C)C)[C@H](C)OC2=O)c1OCOC(C)=O` [Compound 57], the pest or weed control at 100 ppm in test [2] lay in the range of 0 to 80%; in test [3], 80 to 100%.
Regarding `COc1ccnc(C(=O)N[C@H]2COC[C@H](OCC(C)C)[C@@H](OCC(C)C)[C@H](C)OC2=O)c1OCOC(C)=O` [Compound 3, (2-((3S,7S,8S,9S)-7,8-diisobutoxy-9-methyl-2-oxo-1,5-dioxonan-3-ylcarbamoyl)-4-methoxypyridin-3-yloxy)methyl], the pest or weed control at 1 µg/leaf in test [1] (setting [4]) and in test [1] (setting [5]) was 80 to 100% each time. Further, the pest or weed control at 100 ppm lay within 0 to 80% in the test on Venturia inaequalis, 80 to 100% in test [2] and 80 to 100% in test [3].
With `COc1ccnc(C(=O)N[C@H]2COC[C@H](OC)[C@@H](OC)[C@H](C)OC2=O)c1OCOC(C)=O` [Compound 65], the pest or weed control at 1 µg/leaf in test [1] (setting [4]) and in test [1] (setting [5]) was 0 to 80% throughout. Further, the pest or weed control at 100 ppm in test [3] lay within 0 to 80%.
Turning to `COc1ccnc(C(=O)NC2COC[C@H](OCc3ccccc3)[C@@H](OCc3ccccc3)[C@H](C)OC2=O)c1OCOC(C)=O` (stereo partly drawn) [Compound 12], the pest or weed control at 1 µg/leaf in test [1] (setting [4]) and in test [1] (setting [5]) was 0 to 80% in each case. Further, the results for the pest or weed control at 100 ppm (with Venturia inaequalis; in test [2]; in test [3]) were 0 to 80%, 0 to 80% and 80 to 100%, respectively.
Turning to `COc1ccnc(C(=O)N[C@H]2COC[C@H](OCC(C)C)[C@@H](Oc3ccccc3)[C@H](C)OC2=O)c1OCOC(C)=O` [Compound 85], the pest or weed control at 1 µg/leaf in test [1] (setting [4]) and in test [1] (setting [5]) was 80 to 100% in each case. The pest or weed control at 100 ppm in the test with Venturia inaequalis was 0 to 80%; in test [2], 0 to 80%; in test [3] it was 80 to 100%.
As for `CCCCO[C@H]1COC[C@H](NC(=O)c2nccc(OC)c2OCOC(C)=O)C(=O)O[C@@H](C)[C@@H]1OCC(F)F` [Compound 55], the pest or weed control at 100 ppm in test [3] lay within 80 to 100%.
On to `CCCCO[C@H]1COC[C@H](NC(=O)c2nccc(OC)c2OCOC(C)=O)C(=O)O[C@@H](C)[C@@H]1OCCOC` [Compound 54], for which the pest or weed control at 100 ppm lay within 0 to 80% in test [2] and 80 to 100% in test [3].
Regarding `COc1ccnc(C(=O)N[C@H]2COC[C@H](Oc3ccc(F)cc3)[C@@H](Oc3ccc(F)cc3)[C@H](C)OC2=O)c1OCOC(C)=O` [Compound 231], the pest or weed control at 100 ppm with Venturia inaequalis lay within 0 to 80%; in test [2], 0 to 80%; in test [3] it was 80 to 100%.
Turning to `COc1ccnc(C(=O)N[C@H]2COC[C@H](Oc3ccc(F)cc3)[C@@H](Oc3ccc(F)cc3)[C@H](C)OC2=O)c1OC(C)=O` [Compound 229, 2-(((3S,7S,8S,9S)-7,8-bis(4-fluorophenoxy)-9-methyl-2-oxo-1,5-dioxonan-3-yl)carbamoyl)-4-methoxypyridin-3-yl acetate], the figures for the pest or weed control at 100 ppm in test [2] and in test [3] were 0 to 80% and 80 to 100%, respectively.
Regarding `COc1ccnc(C(=O)N[C@H]2COC[C@H](OCCCC(F)(F)F)[C@@H](OCCCC(F)(F)F)[C@H](C)OC2=O)c1OCOC(C)=O` [Compound 68], the pest or weed control at 1 µg/leaf in test [1] (setting [4]) and in test [1] (setting [5]) was 0 to 80% in each case. Also, the pest or weed control at 100 ppm in the test on Venturia inaequalis is 0 to 80%; in test [2], 0 to 80%; in test [3], 80 to 100%.
Regarding `CCCO[C@H]1[C@H](C)OC(=O)[C@@H](NC(=O)c2nccc(OC)c2OCOC(C)=O)COC[C@@H]1Oc1ccccc1` [Compound 222], the pest or weed control at 100 ppm in test [3] lay within 80 to 100%.
Turning to `CCCO[C@H]1COC[C@H](NC(=O)c2nccc(OC)c2OCOC(C)=O)C(=O)O[C@@H](C)[C@@H]1Oc1ccccc1` [Compound 221], the pest or weed control at 100 ppm in test [3] lay in the range of 80 to 100%.
Take `COc1ccnc(C(=O)N[C@H]2COC[C@H](Oc3ccccc3)[C@@H](OCC(C)C)[C@H](C)OC2=O)c1OCOC(C)=O` [Compound 86]: the figures for the pest or weed control at 1 µg/leaf in test [1] (setting [4]) and in test [1] (setting [5]) were 80 to 100% and 0 to 80%, respectively. The pest or weed control at 100 ppm in the test on Venturia inaequalis is 0 to 80%; in test [2] it was 0 to 80%; in test [3] it was 80 to 100%.
Consider `COc1ccnc(C(=O)N[C@H]2COC[C@H](OCC(C)C)[C@@H](OCC(C)C)[C@H](C)OC2=O)c1OCOC(=O)C(C)C` [Compound 2], for which the pest or weed control at 1 µg/leaf in test [1] (setting [4]) and in test [1] (setting [5]) was 80 to 100% throughout. The pest or weed control at 100 ppm in test [2] lay in the range of 80 to 100%.
On to `COc1ccnc(C(=O)N[C@H]2COC[C@H](OCCCc3ccccc3)[C@@H](OCCCc3ccccc3)[C@H](C)OC2=O)c1OCOC(C)=O` [Compound 60], for which the pest or weed control at 1 µg/leaf in test [1] (setting [4]) was in the range of 0 to 80%. Also, the pest or weed control at 100 ppm with Venturia inaequalis fell in the range of 0 to 80%; in test [3], 80 to 100%.
Turning to `COc1ccnc(C(=O)N[C@H]2COC[C@H](OCC(C)C)[C@@H](OC3CCCCC3)[C@H](C)OC2=O)c1OCOC(C)=O` [Compound 77], the pest or weed control at 1 µg/leaf in test [1] (setting [4]) fell in the range of 80 to 100%; in test [1] (setting [5]), 0 to 80%. The values for the pest or weed control at 100 ppm (with Venturia inaequalis; in test [2]; in test [3]) were 0 to 80%, 0 to 80% and 80 to 100%, respectively.
As for `COc1ccnc(C(=O)N[C@H]2COC[C@H](Oc3ccccc3)[C@@H](Oc3ccccc3)[C@H](C)OC2=O)c1OCOC(C)=O` [Compound 84], in test [1] (setting [4]), the pest or weed control at 1 µg/leaf lay within 80 to 100%. Further, the pest or weed control at 100 ppm in the test on Venturia inaequalis lay within 0 to 80%; in test [2] it was 0 to 80%; in test [3], 80 to 100%.
